Source: PubChem BioAssay (NCI)
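Assay format: 96-well plates, 48-hour exposure. GI50: concentration for 50% inhibition of growth. At the TGI there is no net growth.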

What was measured:
Assay in all cases: DTP human tumour cell line panel, 48 h
NCI-H460 lung = test system: NCI-H460 lung
CAKI-1 renal = test system: CAKI-1 renal
SW-620 colon = test system: SW-620 colon
IGROV1 ovarian = test system: IGROV1 ovarian
U251 CNS = test system: U251 CNS
SR leukemia = test system: SR leukemia
UACC-257 melanoma = test system: UACC-257 melanoma
MOLT-4 leukemia = test system: MOLT-4 leukemia
UO-31 renal = test system: UO-31 renal
SF-539 CNS = test system: SF-539 CNS

| Compound | GI50 (NCI-H460 lung) [µM] | TGI (NCI-H460 lung) [µM] | GI50 (CAKI-1 renal) [µM] | TGI (CAKI-1 renal) [µM] | GI50 (SW-620 colon) [µM] | TGI (SW-620 colon) [µM] | GI50 (IGROV1 ovarian) [µM] | TGI (IGROV1 ovarian) [µM] | GI50 (U251 CNS) [µM] | TGI (U251 CNS) [µM] | GI50 (SR leukemia) [µM] | TGI (SR leukemia) [µM] | GI50 (UACC-257 melanoma) [µM] | TGI (UACC-257 melanoma) [µM] | GI50 (MOLT-4 leukemia) [µM] | TGI (MOLT-4 leukemia) [µM] | GI50 (UO-31 renal) [µM] | TGI (UO-31 renal) [µM] | GI50 (SF-539 CNS) [µM] | TGI (SF-539 CNS) [µM] |
| --- | --- | --- | --- | --- | --- | --- | --- | --- | --- | --- | --- | --- | --- | --- | --- | --- | --- | --- | --- | --- |
| CCCCCOc1ccc(/C=N/Nc2cc(C)nc3ccc(Br)cc23)cc1 | 1.94 | 3.7 | 1.63 | 2.99 | 1.92 | 3.63 | 1.72 | 3.37 | 1.82 | 3.39 | 0.448 | 2.15 | 1.88 | 3.6 | 1.73 | 3.58 | 1.57 | 3 | 1.76 | 3.23 |
| CCN1C(=O)N(CC)C2C1NN=c1s/c(=C3\C(=O)N(CC(C)(C)C)c4ccccc43)c(=O)n12 (stereo not given) | 3.39 | 13.4 | 1.84 | 22.2 | 4.75 | 21.9 | 3.91 | 23.6 | 4.13 | 20.6 | 0.755 | 41.6 | 13.1 | 37.9 | 3.79 | 40.3 | 3.65 | 18.2 | 2.95 | 11.1 |
| N#Cc1c(N/N=C/c2ccc(Cl)cc2Cl)nc(N)nc1N1CCCC1 | 63.9 | > 100 | 21.7 | 63.2 | 19.5 | > 100 | 13.8 | 39.5 | 9.02 | 23.4 | 10.7 | 42.9 | > 100 | > 100 | 25 | > 100 | 32 | > 100 | 22.8 | > 100 |
